# Reference: PubChem BioAssay AID330 (DTP/NCI, 2004)
# Where “and” joins values, the source holds several entries; their conditions need not be identical. Equal values may be shown once. Toxic doses and inconclusive results are not listed.
# System: P388 leukemia ip, CD2F1 mice, survival T/C
# Test: NCI In Vivo Anticancer Drug Screen. Data for tumor model P388 Leukemia (intraperitoneal) in CD2F1 (CDF1) mice
# Conditions: endpoint: median survival time, higher = longer survival
# Outline: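 Mice carrying the transplanted tumor received test compound or vehicle. Survival was recorded in each group, and the value is the treated-group measurement divided by that of the vehicle-treated control group.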
# [1] = dose: 60.0 mg/kg/injection, schedule: Q01DX005 (ip), vehicle: saline with Tween-80
# [2] = dose: 120.0 mg/kg/injection, schedule: Q01DX005 (ip), vehicle: saline with Tween-80
# [3] = dose: 50.0 mg/kg/injection, schedule: Q01DX005 (ip), vehicle: Klucel (hydroxypropylcellulose) (HPC)
# [4] = dose: 100.0 mg/kg/injection, schedule: Q01DX005 (ip), vehicle: Klucel (hydroxypropylcellulose) (HPC)
# [5] = dose: 200.0 mg/kg/injection, schedule: Q01DX005 (ip), vehicle: Klucel (hydroxypropylcellulose) (HPC)
# [6] = dose: 50.0 mg/kg/injection, schedule: Q01DX009 (ip), vehicle: Klucel (hydroxypropylcellulose) (HPC)
# [7] = dose: 100.0 mg/kg/injection, schedule: Q01DX009 (ip), vehicle: Klucel (hydroxypropylcellulose) (HPC)
# [8] = dose: 200.0 mg/kg/injection, schedule: Q01DX009 (ip), vehicle: Klucel (hydroxypropylcellulose) (HPC)
# [9] = dose: 100.0 mg/kg/injection, schedule: Q01DX001 (ip), vehicle: Klucel (hydroxypropylcellulose) (HPC)
# [10] = dose: 200.0 mg/kg/injection, schedule: Q01DX001 (ip), vehicle: Klucel (hydroxypropylcellulose) (HPC)
structure (smiles),measurement,setting,value
O=[N+]([O-])c1ccc(NCCO)c([N+](=O)[O-])c1,T/C,"dose: 100.0 mg/kg/injection, schedule: Q04DX003 (ip), vehicle: saline with Tween-80",100 % of control
same,T/C,"dose: 200.0 mg/kg/injection, schedule: Q04DX003 (ip), vehicle: saline with Tween-80",100 % of control
same,T/C,"dose: 400.0 mg/kg/injection, schedule: Q04DX003 (ip), vehicle: saline with Tween-80",90 % of control
O=C1CSC=NN1c1ccccc1,T/C,[1],102 % of control
same,T/C,[2],92 % of control
same,T/C,"dose: 240.0 mg/kg/injection, schedule: Q01DX005 (ip), vehicle: saline with Tween-80",108 % of control
Cc1cc2c3ccc(C)[n+](C)c3ccc2n1C,T/C,"dose: 1.25 mg/kg/injection, schedule: Q01DX010 (ip), vehicle: saline",100 % of control
same,T/C,"dose: 2.5 mg/kg/injection, schedule: Q01DX010 (ip), vehicle: saline",105 % of control
N#Cc1ccc[nH]c1=S,T/C,"dose: 50.0 mg/kg/injection, schedule: Q01DX009 (ip), vehicle: saline with Tween-80",95 % of control
same,T/C,"dose: 100.0 mg/kg/injection, schedule: Q01DX009 (ip), vehicle: saline with Tween-80",102 % of control
same,T/C,"dose: 200.0 mg/kg/injection, schedule: Q01DX009 (ip), vehicle: saline with Tween-80",104 % of control
CCN1COc2ccc3ccc4c(c3c2C1)CN(CC)CO4,T/C,[3],101 % of control
same,T/C,[4],101 % of control
same,T/C,[5],102 % of control
NC1=NN(S(=O)(=O)c2ccc(Cl)cc2)CC1,T/C,[3],96 % of control
same,T/C,[4],88 % of control
same,T/C,[5],90 % of control
CC(=O)NS(=O)(=O)c1ccc(N/N=C(\C#N)C(N)=O)cc1,T/C,[3],92 % of control
same,T/C,[4],100 % of control
CCOc1cc2cc(/C=N/OCC3CO3)c(Cl)nc2cc1OCC (stereo not drawn),T/C,"dose: 50.0 mg/kg/injection, schedule: Q01DX005 (ip), vehicle: suspension in saline",92 % of control
same,T/C,"dose: 100.0 mg/kg/injection, schedule: Q01DX005 (ip), vehicle: suspension in saline",92 % of control
same,T/C,"dose: 200.0 mg/kg/injection, schedule: Q01DX005 (ip), vehicle: suspension in saline",90 % of control
C(=N/NC1=NCCN1)/c1c2ccccc2c(/C=N\NC2=NCCN2)c2ccccc12,T/C,"dose: 0.05 mg/kg/injection, schedule: Q01DX009 (ip), vehicle: saline",155 % of control
same,T/C,"dose: 0.2 mg/kg/injection, schedule: Q01DX009 (ip), vehicle: saline",161 % of control
same,T/C,"dose: 0.39 mg/kg/injection, schedule: Q01DX009 (ip), vehicle: saline",183 % of control
same,T/C,"dose: 0.78 mg/kg/injection, schedule: Q01DX009 (ip), vehicle: saline",238 % of control
same,T/C,"dose: 1.56 mg/kg/injection, schedule: Q01DX009 (ip), vehicle: saline",188 % of control and 193 % of control
same,T/C,"dose: 3.12 mg/kg/injection, schedule: Q01DX009 (ip), vehicle: saline",204 % of control
same,T/C,"dose: 5.18 mg/kg/injection, schedule: Q04DX002 (ip), vehicle: saline",181 % of control
same,T/C,"dose: 6.25 mg/kg/injection, schedule: Q01DX009 (ip), vehicle: saline",193 % of control
same,T/C,"dose: 7.78 mg/kg/injection, schedule: Q04DX002 (ip), vehicle: saline",228 % of control
same,T/C,"dose: 8.64 mg/kg/injection, schedule: Q04DX002 (ip), vehicle: saline",227 % of control
same,T/C,"dose: 12.5 mg/kg/injection, schedule: Q01DX009 (ip), vehicle: saline",225 % of control
same,T/C,"dose: 13.0 mg/kg/injection, schedule: Q04DX002 (ip), vehicle: saline",166 % of control
same,T/C,"dose: 14.4 mg/kg/injection, schedule: Q04DX002 (ip), vehicle: saline",181 % of control
same,T/C,"dose: 21.6 mg/kg/injection, schedule: Q04DX002 (ip), vehicle: saline",184 % of control
same,T/C,"dose: 24.0 mg/kg/injection, schedule: Q04DX002 (ip), vehicle: saline",200 % of control
same,T/C,"dose: 25.0 mg/kg/injection, schedule: Q01DX009 (ip), vehicle: saline",121 % of control
same,T/C,"dose: 29.0 mg/kg/injection, schedule: Q01DX001 (ip), vehicle: water",195 % of control
same,T/C,"dose: 36.0 mg/kg/injection, schedule: Q04DX002 (ip), vehicle: saline",210 % of control
same,T/C,"dose: 40.0 mg/kg/injection, schedule: Q04DX002 (ip), vehicle: saline",181 % of control
same,T/C,"dose: 60.0 mg/kg/injection, schedule: Q04DX002 (ip), vehicle: saline",192 % of control
same,T/C,"dose: 87.0 mg/kg/injection, schedule: Q01DX001 (ip), vehicle: water",222 % of control
same,T/C,"dose: 133.0 mg/kg/injection, schedule: Q01DX001 (ip), vehicle: water",236 % of control
same,T/C,"dose: 200.0 mg/kg/injection, schedule: Q01DX001 (ip), vehicle: water",286 % of control
same,T/C,"dose: 1.57 micrograms/kg/injection, schedule: Q01DX009 (ip), vehicle: saline",100 % of control
same,T/C,"dose: 3.13 micrograms/kg/injection, schedule: Q01DX009 (ip), vehicle: saline",99 % of control
same,T/C,"dose: 6.25 micrograms/kg/injection, schedule: Q01DX009 (ip), vehicle: saline",107 % of control
same,T/C,"dose: 12.5 micrograms/kg/injection, schedule: Q01DX009 (ip), vehicle: saline",104 % of control
same,T/C,"dose: 25.0 micrograms/kg/injection, schedule: Q01DX009 (ip), vehicle: saline",109 % of control
same,T/C,"dose: 50.0 micrograms/kg/injection, schedule: Q01DX009 (ip), vehicle: saline",122 % of control
C(=C(Sc1ccccc1)Sc1ccccc1)C(Sc1ccccc1)c1ccccc1 (stereo not drawn),T/C,[6],93 % of control
same,T/C,[7],96 % of control
same,T/C,[8],90 % of control
Cc1ccc(S(=O)(=O)N/N=C/c2c(-c3ccc(Cl)cc3)nc3n2CCS3)cc1,T/C,[9],100 % of control
same,T/C,[10],92 % of control
same,T/C,"dose: 400.0 mg/kg/injection, schedule: Q01DX001 (ip), vehicle: Klucel (hydroxypropylcellulose) (HPC)",94 % of control
O=C(O)c1ccc(Cl)c(Cl)c1,T/C,"dose: 12.5 mg/kg/injection, schedule: Q01DX009 (ip), vehicle: Klucel (hydroxypropylcellulose) (HPC)",101 % of control
same,T/C,"dose: 25.0 mg/kg/injection, schedule: Q01DX009 (ip), vehicle: Klucel (hydroxypropylcellulose) (HPC)",110 % of control
same,T/C,[6],99 % of control
same,T/C,[7],108 % of control
O=C1C(=C2C=CN(CCCN3CCCCC3)C=C2)C(=O)c2ccccc21,T/C,[6],91 % of control
same,T/C,[7],102 % of control
same,T/C,[8],102 % of control
CN1C(c2ccccc2)CC(=O)C(N)C1c1ccccc1 (stereo not drawn),T/C,"dose: 50.0 mg/kg/injection, schedule: Q01DX005 (ip), vehicle: distilled water + Tween-80",92 % of control
same,T/C,"dose: 100.0 mg/kg/injection, schedule: Q01DX005 (ip), vehicle: distilled water + Tween-80",90 % of control
same,T/C,"dose: 200.0 mg/kg/injection, schedule: Q01DX005 (ip), vehicle: distilled water + Tween-80",92 % of control
Cc1cc(COCCN(C)C)on1,T/C,[1],97 % of control
same,T/C,[2],104 % of control
CC(=O)Nc1ncc(Sc2ccc([N+](=O)[O-])cc2)s1,T/C,"dose: 1.56 mg/kg/injection, schedule: Q04DX003 (ip), vehicle: saline",100 % of control
same,T/C,"dose: 3.13 mg/kg/injection, schedule: Q04DX003 (ip), vehicle: saline",99 % of control
same,T/C,"dose: 6.25 mg/kg/injection, schedule: Q04DX003 (ip), vehicle: saline",98 % of control
same,T/C,"dose: 12.5 mg/kg/injection, schedule: Q04DX003 (ip), vehicle: saline",97 % of control
CCOC(=O)c1c(O)c(Cc2ccccc2)c(=O)n2c1[nH]c1cc(C)c(C)cc12,T/C,"dose: 7.5 mg/kg/injection, schedule: Q01DX005 (ip), vehicle: saline with Tween-80",100 % of control
same,T/C,"dose: 15.0 mg/kg/injection, schedule: Q01DX005 (ip), vehicle: saline with Tween-80",100 % of control
NC(CCC(=O)OCc1ccccc1)C(=O)OCc1ccccc1 (stereo not drawn),T/C,"dose: 50.0 mg/kg/injection, schedule: Q04DX003 (ip), vehicle: saline",100 % of control
same,T/C,"dose: 100.0 mg/kg/injection, schedule: Q04DX003 (ip), vehicle: saline",104 % of control
same,T/C,"dose: 200.0 mg/kg/injection, schedule: Q04DX003 (ip), vehicle: saline",100 % of control
COc1cc2c(C)nc3c4cc5c(cc4ccc3c2cc1OC)OCO5,T/C,"dose: 25.0 mg/kg/injection, schedule: Q01DX009 (ip), vehicle: water",108 % of control
same,T/C,"dose: 50.0 mg/kg/injection, schedule: Q01DX009 (ip), vehicle: water",95 % of control
O=C(OC(Cc1ccccc1)C(=O)O)c1ccc([N+](=O)[O-])cc1 (stereo not drawn),T/C,"dose: 50.0 mg/kg/injection, schedule: Q01DX001 (ip), vehicle: Klucel (hydroxypropylcellulose) (HPC)",97 % of control
same,T/C,[9],111 % of control
same,T/C,[10],109 % of control
